Tested on: HSV-I viral keratitis
Experiment: HSV-I viral keratitis model in mice, eye drops
Type: in vivo
Excerpt: 8-week-old C57 mice (25 mice, weighing 22 g-25 g) were used to establish HSV-I viral keratitis models in their right eyes. During the modeling process, ster[…] needles were used to make #-shaped/*-shaped/parallel scratches on the cornea of all animals' right eyes. The depth of the scratches must be in the superficial layer, and could not penetrate the stroma. The depth of the scratches for each eye was moderately uniform, and the scratches were evenly distributed, and then a fiber syringe was used to drop 4 μl of HSV-I virus solution mixed well (titer: 2.0×10^6 PFU/ml), to finish modeling. After 1 day of modeling, the right eye of the animal was scored for HSV-I viral keratitis, and 20 mice with successful and uniform modeling were selected for inclusion in the experiment, which were randomly divided into two groups: a modeling group (Ctrl) and a di-XYW compound group, with 10 mice in one group. The surface of the right eye of the animal was treated with a corresponding solvent (Ctrl group, with physiological saline as the solvent) or a di-XYW compound at a concentration of 500 μg/ml (using physiological saline as the solvent), by administering every other day. On the day of administration, each eye should be administrated 5 times, 10 μl for each time, for 2 weeks. The pathological change of keratitis was scored before eye drops (Day 0) and on days 1, 3, 7, and 14 after eye drops (that was summarized as clinical scores, with scoring criteria shown in Table 7), followed by analysis and comparison. [table]

COc1c(O)c(Cc2c(O)c(OC)c(O)c3c(=O)c(-c4ccc(O)c(S(=O)(=O)[O-])c4)coc23)c2occ(-c3ccc(O)c(S(=O)(=O)[O-])c3)c(=O)c2c1O.[Na+].[Na+] [Compound 2, 8,8″-methylene-di-(sodiumtectorigenin-5′-sulphonate)]
keratitis pathological changes and clinical score changes compared to model control group (Ctrl) (C57 mice, after 1 and 2 weeks of eye drops at 500 μg/ml, *P<0.05): statistically significant differences | therapeutic effect on HSV-I viral keratitis (in words) (C57 mice, eye drops 500 μg/ml, every other day, 5 x 10 μl per day, 2 weeks): good therapeutic effect | inhibition of pathological changes of HSV-I viral keratitis (in words) (mice, eye drops): effectively inhibit
